Laboratory results taken from the NIST ThermoML archive (doi:10.1016/j.fluid.2009.05.005).
± gives the expanded uncertainty stated by the source. Values belong to the compound of their own block, whether it stands above or below them.

Tests used:
[1] = Excess molar heat capacity; xn = mol fraction of the nth substance listed; settings: 298.15 K; 101 kPa; Liquid; Flow calorimetry; x2 = 0
[2] = activity coefficient (dimensionless); of the first substance listed, at infinite dilution; xn = mol fraction of the nth substance listed; settings: 101 kPa, Liquid, circulation still, x1 = 0
[3] = 333.15 K, Rayleigh distillation
[4] = 343.15 K, Rayleigh distillation
[5] = 353.15 K, Rayleigh distillation

molar heat capacity [1]: 131 ± 2 J/K/mol
Structure (SMILES): O [water] + CN1CCCC1=O

Structure (SMILES): C1CCNCC1 [piperidine] + O
activity coefficient [2, 3]: 11.9 ± 0.1
activity coefficient [2, 4]: 14.7 ± 0.1
activity coefficient [2, 5]: 17.7 ± 0.1
activity coefficient ([2]; 372.6 K, Rayleigh distillation): 21 ± 0.1

Structure (SMILES): c1ccncc1 [pyridine] + O
activity coefficient [2, 3]: 24 ± 0.1
activity coefficient [2, 4]: 25.5 ± 0.1
activity coefficient [2, 5]: 26 ± 0.1
activity coefficient ([2]; 372.8 K, Rayleigh distillation): 25.4 ± 0.1

activity coefficient ([2]; 333.15 K, differential distillation): 1.34 ± 0.06
activity coefficient ([2]; 343.15 K, differential distillation): 1.56 ± 0.06
activity coefficient ([2]; 353.15 K, differential distillation): 1.75 ± 0.06
activity coefficient ([2]; 372.85 K, differential distillation): 2.07 ± 0.1
Structure (SMILES): CN1CCCC1=O [N-methylpyrrolidone] + O
